{"source": "patent US4849429A", "about": "“Certain 1,4-dihydro-2,6-dilower-alkyl-4-(mono-substituted pyridyl) useful for treating coronary artery or cerebral artery disease” (The Green Cross Corporation, priority 1985, dated 1989)", "assay": "Test 2: blood pressure depression up to 24 hours and duration until 50% recovery, oral", "format": "in vivo, Male, spontaneously hypertension-developing rats", "conditions": "for response vs control in vivo at 25 mg/kg: Rattus norvegicus, percent based on that before administration (100); for Duration 50% recovery: duration until pressure recovered to 50% from the maximum depression value", "description": "Male, spontaneously hypertension-developing rats of ages of 10 to 11 weeks (in groups of 3 to 5 animals) were used in the test. For blood pressure determination, systolic pressure was measured without anesthesia by an indirect tail-cuff method using a sphygmomanometer (PE-300, Narco Bio-System).", "key": {"[1]": {"conditions": "1h after oral administration, read-out: Depression value (%) of blood pressure, 1h"}, "[2]": {"conditions": "2h after oral administration, read-out: Depression value (%) of blood pressure, 2h"}, "[3]": {"conditions": "4h after oral administration, read-out: Depression value (%) of blood pressure, 4h"}, "[4]": {"conditions": "7h after oral administration, read-out: Depression value (%) of blood pressure, 7h"}, "[5]": {"conditions": "24h after oral administration, read-out: Depression value (%) of blood pressure, 24h"}, "[6]": {"conditions": "maximum lowering, read-out: Depression value (%) of blood pressure, Max"}}, "note": "Where two headings read alike, the source gives them in different places."}
{"smiles": "COC(=O)C1=C(C)NC(C)=C(C(=O)OCCN(C)Cc2ccccc2)C1c1cccnc1C(F)(F)F", "note": "(stereo not drawn) [(13), 2,6-Dimethyl-4-(2-trifluoromethyl-3-pyridyl)-1,4-dihydropyridine-3,5-dicarboxylic acid 3-β-(benzyl-N-methylamino)ethyl ester 5-methyl ester]", "values": [{"measurement": "response vs control in vivo at 25 mg/kg", "setting": "[1]", "result": 73, "unit": "%"}, {"measurement": "response vs control in vivo at 25 mg/kg", "setting": "[2]", "result": 67, "unit": "%"}, {"measurement": "response vs control in vivo at 25 mg/kg", "setting": "[3]", "result": 67, "unit": "%"}, {"measurement": "response vs control in vivo at 25 mg/kg", "setting": "[4]", "result": 71, "unit": "%"}, {"measurement": "response vs control in vivo at 25 mg/kg", "setting": "[5]", "result": 94, "unit": "%"}, {"measurement": "response vs control in vivo at 25 mg/kg", "setting": "[6]", "result": 67, "unit": "%"}, {"measurement": "Duration 50% recovery", "result": 16.2, "unit": "h"}]}
{"smiles": "COC(=O)C1=C(C)NC(C)=C(C(=O)OCCN(C)Cc2ccccc2)C1c1cncc(Br)c1", "note": "(stereo not drawn) [(14), 2,6-Dimethyl-4-(5-bromo-3-pyridyl)-1,4-dihydropyridine-3,5-dicarboxylic ac id 3-β-(N-benzyl-N-methylamino)ethyl ester 5-methyl ester]", "values": [{"measurement": "response vs control in vivo at 25 mg/kg", "setting": "[1]", "result": 83, "unit": "%"}, {"measurement": "response vs control in vivo at 25 mg/kg", "setting": "[2]", "result": 91, "unit": "%"}, {"measurement": "response vs control in vivo at 25 mg/kg", "setting": "[3]", "result": 90, "unit": "%"}, {"measurement": "response vs control in vivo at 25 mg/kg", "setting": "[4]", "result": 90, "unit": "%"}, {"measurement": "response vs control in vivo at 25 mg/kg", "setting": "[5]", "result": 101, "unit": "%"}, {"measurement": "response vs control in vivo at 25 mg/kg", "setting": "[6]", "result": 83, "unit": "%"}, {"measurement": "Duration 50% recovery", "result": 9.3, "unit": "h"}]}
{"smiles": "COC(=O)C1=C(C)NC(C)=C(C(=O)OCCN(C)Cc2ccccc2)C1c1ccc(C#N)nc1", "note": "(stereo not drawn) [(15), 2,6-Dimethyl-4-(6-cyano-3-pyridyl)-1,4-dihydropyridine-3,5-dicarboxylic ac id 3-β-(N-benzyl-N-methylamino)ethyl ester 5-methyl ester]", "values": [{"measurement": "response vs control in vivo at 25 mg/kg", "setting": "[1]", "result": 88, "unit": "%"}, {"measurement": "response vs control in vivo at 25 mg/kg", "setting": "[2]", "result": 90, "unit": "%"}, {"measurement": "response vs control in vivo at 25 mg/kg", "setting": "[3]", "result": 83, "unit": "%"}, {"measurement": "response vs control in vivo at 25 mg/kg", "setting": "[4]", "result": 89, "unit": "%"}, {"measurement": "response vs control in vivo at 25 mg/kg", "setting": "[5]", "result": 95, "unit": "%"}, {"measurement": "response vs control in vivo at 25 mg/kg", "setting": "[6]", "result": 83, "unit": "%"}, {"measurement": "Duration 50% recovery", "result": 15.1, "unit": "h"}]}
{"smiles": "COC(=O)C1=C(C)NC(C)=C(C(=O)OCCN(C)Cc2ccccc2)C1c1ccnc(F)c1", "note": "(stereo not drawn) [(16), 2,6-Dimethyl-4-(2-fluoro-4-pyridyl)-1,4-dihydropyridine-3,5-dicarboxylic acid 3-β-(N-benzyl-N-methylamino)ethyl ester 5-methyl ester]", "values": [{"measurement": "response vs control in vivo at 25 mg/kg", "setting": "[1]", "result": 92, "unit": "%"}, {"measurement": "response vs control in vivo at 25 mg/kg", "setting": "[2]", "result": 94, "unit": "%"}, {"measurement": "response vs control in vivo at 25 mg/kg", "setting": "[3]", "result": 95, "unit": "%"}, {"measurement": "response vs control in vivo at 25 mg/kg", "setting": "[4]", "result": 98, "unit": "%"}, {"measurement": "response vs control in vivo at 25 mg/kg", "setting": "[5]", "result": 96, "unit": "%"}, {"measurement": "response vs control in vivo at 25 mg/kg", "setting": "[6]", "result": 92, "unit": "%"}, {"measurement": "Duration 50% recovery", "result": 5.5, "unit": "h"}]}
{"smiles": "COC(=O)C1=C(C)NC(C)=C(C(=O)OCCN(C)Cc2ccccc2)C1c1cncc(C(F)(F)F)c1", "note": "(stereo not drawn) [(17), 2,6-Dimethyl-4-(5-trifluoromethyl-3-pyridyl)-1,4-dihydropyridine-3,5-dicarboxylic acid 3-β-(N-benzyl-N-methylamino)ethyl ester 5-methyl ester]", "values": [{"measurement": "response vs control in vivo at 25 mg/kg", "setting": "[1]", "result": 91, "unit": "%"}, {"measurement": "response vs control in vivo at 25 mg/kg", "setting": "[2]", "result": 92, "unit": "%"}, {"measurement": "response vs control in vivo at 25 mg/kg", "setting": "[3]", "result": 95, "unit": "%"}, {"measurement": "response vs control in vivo at 25 mg/kg", "setting": "[4]", "result": 98, "unit": "%"}, {"measurement": "response vs control in vivo at 25 mg/kg", "setting": "[5]", "result": 105, "unit": "%"}, {"measurement": "response vs control in vivo at 25 mg/kg", "setting": "[6]", "result": 91, "unit": "%"}, {"measurement": "Duration 50% recovery", "result": 4.2, "unit": "h"}]}
{"smiles": "COC(=O)C1=C(C)NC(C)=C(C(=O)OCCN(C)Cc2ccccc2)C1c1cncc([N+](=O)[O-])c1", "note": "(stereo not drawn) [(18), 2,6-Dimethyl-4-(5-nitro-3-pyridyl)-1,4-dihydropyridine-3,5-dicarboxylic ac id 3-β-(N-benzyl-N-methylamino)ethyl ester 5-methyl ester]", "values": [{"measurement": "response vs control in vivo at 25 mg/kg", "setting": "[1]", "result": 90, "unit": "%"}, {"measurement": "response vs control in vivo at 25 mg/kg", "setting": "[2]", "result": 86, "unit": "%"}, {"measurement": "response vs control in vivo at 25 mg/kg", "setting": "[3]", "result": 95, "unit": "%"}, {"measurement": "response vs control in vivo at 25 mg/kg", "setting": "[4]", "result": 96, "unit": "%"}, {"measurement": "response vs control in vivo at 25 mg/kg", "setting": "[5]", "result": 96, "unit": "%"}, {"measurement": "response vs control in vivo at 25 mg/kg", "setting": "[6]", "result": 86, "unit": "%"}, {"measurement": "Duration 50% recovery", "result": 3.7, "unit": "h"}]}
{"smiles": "COC(=O)C1=C(C)NC(C)=C(C(=O)OCCN(C)Cc2ccccc2)C1c1ccnc(C#N)c1", "note": "(stereo not drawn) [(19), 2,6-Dimethyl-4-(2-cyano-4-pyridyl)-1,4-dihydropyridine-3,5-dicarboxylic ac id 3-β-(N-benzyl-N-methylamino)ethyl ester 5-methyl ester]", "values": [{"measurement": "response vs control in vivo at 25 mg/kg", "setting": "[1]", "result": 75, "unit": "%"}, {"measurement": "response vs control in vivo at 25 mg/kg", "setting": "[2]", "result": 94, "unit": "%"}, {"measurement": "response vs control in vivo at 25 mg/kg", "setting": "[3]", "result": 100, "unit": "%"}, {"measurement": "response vs control in vivo at 25 mg/kg", "setting": "[4]", "result": 98, "unit": "%"}, {"measurement": "response vs control in vivo at 25 mg/kg", "setting": "[5]", "result": 99, "unit": "%"}, {"measurement": "response vs control in vivo at 25 mg/kg", "setting": "[6]", "result": 75, "unit": "%"}, {"measurement": "Duration 50% recovery", "result": 1.7, "unit": "h"}]}
{"smiles": "COC(=O)C1=C(C)NC(C)=C(C(=O)OCCN(C)Cc2ccccc2)C1c1cccc([N+](=O)[O-])c1", "note": "(stereo not drawn) [Nic, 2,6-dimethyl-4-(3-nitrophenyl)-1,4-dihydropyridine-3,5-dicarboxylic acid 3-β-(N-benzyl-N-methylamino)ethyl ester 5-methyl ester, reference compound]", "values": [{"measurement": "response vs control in vivo at 25 mg/kg", "setting": "[1]", "result": 62, "unit": "%"}, {"measurement": "response vs control in vivo at 25 mg/kg", "setting": "[2]", "result": 68, "unit": "%"}, {"measurement": "response vs control in vivo at 25 mg/kg", "setting": "[3]", "result": 76, "unit": "%"}, {"measurement": "response vs control in vivo at 25 mg/kg", "setting": "[4]", "result": 81, "unit": "%"}, {"measurement": "response vs control in vivo at 25 mg/kg", "setting": "[5]", "result": 96, "unit": "%"}, {"measurement": "response vs control in vivo at 25 mg/kg", "setting": "[6]", "result": 62, "unit": "%"}, {"measurement": "Duration 50% recovery", "result": 7.0, "unit": "h"}]}
